Consider 24 compounds from patent US20190119282A1, “IMIDAZOPYRIDAZINES USEFUL AS INHIBITORS OF THE PAR-2 SIGNALING PATHWAY” (Vertex Pharmaceuticals Incorporated, priority 2013, published 2019).

Experiment [1] deals with T1, PAR2 (HT-29 cells, SLIGKV activation) (Homo sapiens, UniProt P55085).
T1 construct: host or cells: HT-29 cells
T1 sequence (P55085 26-397): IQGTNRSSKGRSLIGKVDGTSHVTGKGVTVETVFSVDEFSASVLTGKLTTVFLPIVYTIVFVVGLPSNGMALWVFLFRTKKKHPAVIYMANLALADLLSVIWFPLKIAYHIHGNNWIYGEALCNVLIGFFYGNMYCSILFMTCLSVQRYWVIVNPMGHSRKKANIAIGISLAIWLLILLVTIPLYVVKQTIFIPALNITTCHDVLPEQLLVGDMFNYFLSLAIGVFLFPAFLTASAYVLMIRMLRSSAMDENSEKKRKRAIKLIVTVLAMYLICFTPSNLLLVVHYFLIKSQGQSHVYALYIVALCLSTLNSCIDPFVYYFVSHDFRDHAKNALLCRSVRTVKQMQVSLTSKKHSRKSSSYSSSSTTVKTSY
Nature of the experiment: Ca FLIPR TETRA assay, ANTAGONIST mode, stimulation with 8 μM SLIGKV. The format is cell-based. The note with it: for IC50: HT-29 cells, stimulation with 8 μM SLIGKV. The essentials:
(§1)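 FLIPR Tetra Ca2+ read-out in HT-29 cells, calcium 5 dye. Compound preincubation 30 min r.t., with an initial read for agonist activity. Final activator levels: SLIGKV 8 μM, thrombin 1 U/mL, trypsin 3.1 U/mL, UTP 0.6 μM.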

Experiment [2] concerns the target T2, PAR2 (HT-29 cells, trypsin activation) (Homo sapiens, UniProt P55085).
T2 construct: host or cells: HT-29 cells
T2 sequence (P55085 26-397): T1 sequence (P55085 26-397)
Nature of the experiment: Ca FLIPR TETRA assay, ANTAGONIST mode, stimulation with 3.1 U/mL trypsin. The format is cell-based. The note with it: HT-29 cells, stimulation with 3.1 U/mL trypsin. The essentials:
as §1

Experiment [3] deals with Thrombin-stimulated Ca2+ response in HT-29 cells. In words: Ca FLIPR TETRA assay, ANTAGONIST mode, stimulation with 1 U/mL Thrombin. Conditions: Homo sapiens; HT-29 cells, stimulation with 1 U/mL Thrombin. The format is cell-based, human. The gist of the method: as §1
The test system of experiment [4] is UTP-stimulated Ca2+ response in HT-29 cells. Nature of the experiment: Ca FLIPR TETRA assay, ANTAGONIST mode, stimulation with 0.6 μM UTP. Conditions: Homo sapiens; HT-29 cells, stimulation with 0.6 μM UTP. The format is cell-based, human. The gist of the method:
as §1

The term IC50 denotes the concentration that gives 50% inhibition. For the compound `CC1(C)C(=O)NCCN1C(=O)c1cn2nc(-c3ccc(F)cc3)cc(C(F)(F)F)c2n1` [Compound I-35, 4-[6-(4-Fluorophenyl)-8-(trifluoromethyl)imidazo[1,2-b]pyridazine-2-carbonyl]-3,3-dimethyl-piperazin-2-one], the IC50 came to 0.023 µM in experiment [1], 0.062 µM in experiment [2], 43 µM in experiment [3] and 41 µM in experiment [4].

As to `CC(C)(O)C(=O)N1CCN(C(=O)c2cn3nc(-c4ccc(F)cc4)cc(C(F)(F)F)c3n2)C(C)(C)C1` [Compound I-36, 1-[4-[6-(4-Fluorophenyl)-8-(trifluoromethyl)imidazo[1,2-b]pyridazine-2-carbonyl]-3,3-dimethyl-piperazin-1-yl]-2-hydroxy-2-methyl-propan-1-one], the IC50 is 0.071 µM in experiment [1], 0.24 µM in experiment [2], over 50 µM in experiment [3] and over 50 µM in experiment [4].

Consider `CC1(C)CN(C(=O)C2(O)CCC2)CCN1C(=O)c1cn2nc(-c3ccc(F)cc3)cc(C(F)(F)F)c2n1` [Compound I-37, [6-(4-Fluorophenyl)-8-(trifluoromethyl)imidazo[1,2-b]pyridazin-2-yl]-[4-(1-hydroxycyclobutanecarbonyl)-2,2-dimethyl-piperazin-1-yl]methanone], for which the IC50 in experiment [1] was 0.2 µM; in experiment [2], 0.25 µM; in experiment [3] it was over 50 µM; in experiment [4], over 50 µM.

For the compound `CC1(C)CN(C(=O)C2(O)CCOCC2)CCN1C(=O)c1cn2nc(-c3ccc(F)cc3)cc(C(F)(F)F)c2n1` [Compound I-38, [6-(4-Fluorophenyl)-8-(trifluoromethyl)imidazo[1,2-b]pyridazin-2-yl]-[4-(4-hydroxytetrahydropyran-4-carbonyl)-2,2-dimethyl-piperazin-1-yl]methanone], the IC50 in experiment [1] is 0.39 µM; in experiment [2], 0.48 µM; in experiment [3], over 50 µM; in experiment [4], over 45 µM.

Take `C[C@H](O)C(=O)N1CCN(C(=O)c2cn3nc(-c4ccc(F)cc4)cc(C(F)(F)F)c3n2)C(C)(C)C1` [Compound I-39, (2S)-1-[4-[6-(4-Fluorophenyl)-8-(trifluoromethyl)imidazo[1,2-b]pyridazine-2-carbonyl]-3,3-dimethyl-piperazin-1-yl]-2-hydroxy-propan-1-one]: the IC50 in experiment [1] was 0.83 µM; in experiment [2], 0.86 µM; in experiment [3] it was over 50 µM; in experiment [4] it was over 50 µM.

As for `CC(C)c1cc(C2=CCCCC2)nn2cc(C(=O)N3CCN(C(=O)C4(O)CCC4)CC3(C)C)nc12` [Compound I-40, [6-(Cyclohexen-1-yl)-8-isopropyl-imidazo[1,2-b]pyridazin-2-yl]-[4-(1-hydroxycyclobutanecarbonyl)-2,2-dimethyl-piperazin-1-yl]methanone], the 50% inhibitory concentration (IC50) in experiment [1] was 0.072 µM; in experiment [2] it was 0.37 µM; in experiment [3], 24 µM; in experiment [4], 17 µM.

With `CC(C)c1cc(C2CCCCC2)nn2cc(C(=O)N3CCN(C(=O)C4(O)CCC4)CC3(C)C)nc12` [Compound I-41, (6-Cyclohexyl-8-isopropyl-imidazo[1,2-b]pyridazin-2-yl)-[4-(1-hydroxycyclobutanecarbonyl)-2,2-dimethyl-piperazin-1-yl]methanone], the IC50 was determined as 0.061 µM in experiment [1], 0.28 µM in experiment [2], 20 µM in experiment [3] and 21 µM in experiment [4].

For `CC(C)c1cc(C#CC2CC2)nn2cc(C(=O)N3CCN(C(=O)C4(O)CCC4)CC3(C)C)nc12` [Compound I-42, [6-(2-Cyclopropylethynyl)-8-isopropyl-imidazo[1,2-b]pyridazin-2-yl]-[4-(1-hydroxycyclobutanecarbonyl)-2,2-dimethyl-piperazin-1-yl]methanone], the IC50 is 2.2 µM in experiment [1], 5.2 µM in experiment [2], 32 µM in experiment [3] and 41 µM in experiment [4].

Regarding `CC(C)c1cc(C2=CCCC2)nn2cc(C(=O)N3CCN(C(=O)C4(O)CCC4)CC3(C)C)nc12` [Compound I-43, [6-(Cyclopenten-1-yl)-8-isopropyl-imidazo[1,2-b]pyridazin-2-yl]-[4-(1-hydroxycyclobutanecarbonyl)-2,2-dimethyl-piperazin-1-yl]methanone], the IC50 in experiment [1] was determined as 0.48 µM; in experiment [2] it was 1.1 µM; in experiment [3] it was 27 µM; in experiment [4], 31 µM.

On to `CC(C)c1cc(C2=CCOCC2)nn2cc(C(=O)N3CCN(C(=O)C4(O)CCC4)CC3(C)C)nc12` [Compound I-44, [6-(3,6-dihydro-2H-pyran-4-yl)-8-isopropyl-imidazo[1,2-b]pyridazin-2-yl]-[4-(1-hydroxycyclobutanecarbonyl)-2,2-dimethyl-piperazin-1-yl]methanone], for which the IC50 is 5 µM in experiment [1], 9.5 µM in experiment [2], over 50 µM in experiment [3] and over 50 µM in experiment [4].

On to `CC(C)c1cc(C2CCOCC2)nn2cc(C(=O)N3CCN(C(=O)C4(O)CCC4)CC3(C)C)nc12` [Compound I-45, [4-(1-hydroxycyclobutanecarbonyl)-2,2-dimethyl-piperazin-1-yl]-(8-isopropyl-6-tetrahydropyran-4-yl-imidazo[1,2-b]pyridazin-2-yl)methanone], for which the IC50 in experiment [1] is 20 µM; in experiment [2], over 50 µM; in experiment [3] it was over 50 µM; in experiment [4] it was over 50 µM.

On to `C[C@H]1CN(C(=O)c2cn3nc(-c4ccc(F)cc4)cc(C(F)(F)F)c3n2)CCN1C(=O)OCc1ccccc1` [Compound I-46], for which the IC50 was 0.04 µM in experiment [1], 0.095 µM in experiment [2], over 5 µM in experiment [3] and over 5 µM in experiment [4].

Consider `O=C(c1cn2nc(-c3ccc(F)cc3)cc(C(F)(F)F)c2n1)N1CCCCC1CO` (stereo not drawn) [Compound I-47], for which the IC50 in experiment [1] was determined as 3.1 µM; in experiment [2], 7.5 µM; in experiment [3], 16 µM; in experiment [4], 32 µM.

With `COC(=O)[C@@H]1C[C@@H](C)CN(C(=O)c2cn3nc(-c4ccc(F)cc4)cc(C(F)(F)F)c3n2)C1` [Compound I-49], the IC50 in experiment [1] is 0.53 µM; in experiment [2], 1.5 µM; in experiment [3], 5.2 µM; in experiment [4] it was 6 µM.

On to `O=C(c1cn2nc(-c3ccc(F)cc3)cc(C(F)(F)F)c2n1)N1CCN(C(=O)N2CCCCC2)CC1` [Compound I-50], for which, in experiment [1] (@ 1.9 (μM)), the “SLIGKV % @ concentration” value is 44% @ 1.9. For the same compound, the IC50 was 27 µM in experiment [2], over 50 µM in experiment [3] and over 50 µM in experiment [4].

Turning to `CC(C)(C)C[C@@H](O)C(=O)N1CCN(C(=O)c2cn3nc(-c4ccc(F)cc4)cc(C(F)(F)F)c3n2)CC1` [Compound I-52], the IC50 is 0.14 µM in experiment [1], 0.35 µM in experiment [2], 47 µM in experiment [3] and 16 µM in experiment [4].

Consider `O=C(OCc1ccccc1)N1CCN(C(=O)c2cn3nc(-c4ccc(F)cc4)cc(C(F)(F)F)c3n2)CC1` [Compound I-53], for which the “SLIGKV % @ concentration” value in experiment [1] (@ 5.6 (μM)) came to 55% @ 5.6. The values for the concentration for half-maximal inhibition (IC50) in experiment [2], in experiment [3] and in experiment [4] were 21 µM, over 50 µM and over 50 µM, respectively.

On to `CC(C(=O)NC1CC1)N1CCN(C(=O)c2cn3nc(-c4ccc(F)cc4)cc(C(F)(F)F)c3n2)CC1` (stereo not drawn) [Compound I-55], for which the IC50 in experiment [1] was 0.95 µM; in experiment [2], 3.1 µM; in experiment [3], over 50 µM; in experiment [4], over 50 µM.

Take `O=C(c1cn2nc(-c3ccc(F)cc3)cc(C(F)(F)F)c2n1)N1CCN(CCn2ccnc2)CC1` [Compound I-56]: the IC50 in experiment [1] is 23 µM; in experiment [2], over 50 µM; in experiment [3], over 50 µM; in experiment [4], over 50 µM.

For `CCS(=O)(=O)N1CCN(C(=O)c2cn3nc(-c4ccc(F)cc4)cc(C(F)(F)F)c3n2)CC1` [Compound I-57], the IC50 in experiment [1] was 0.59 µM; in experiment [2], 48 µM; in experiment [3] it was over 50 µM; in experiment [4], over 50 µM.

Take `CCC(=O)N1CCN(C(=O)c2cn3nc(-c4ccc(F)cc4)cc(C(F)(F)F)c3n2)CC1` [Compound I-59]: the IC50 in experiment [1] was 22 µM; in experiment [2] it was 2 µM; in experiment [3] it was over 50 µM; in experiment [4], over 50 µM.

Regarding `Cc1cc(-c2ccc(F)cc2)nn2cc(C(=O)N3CCC(C#N)CC3)nc12` [Compound I-60], the 50% inhibitory concentration (IC50) amounted to 7.9 µM in experiment [1], 14 µM in experiment [2], 32 µM in experiment [3] and 40 µM in experiment [4].

For the compound `Cc1cc(-c2ccc(F)cc2)nn2cc(C(=O)N3CCCC4(COC4)C3)nc12` [Compound I-61], the IC50 in experiment [1] is 13 µM; in experiment [2], 19 µM; in experiment [3] it was 26 µM; in experiment [4] it was 38 µM.

On to `CCOC1CCN(C(=O)c2cn3nc(-c4ccc(F)cc4)cc(C)c3n2)CC1` [Compound I-62], for which the IC50 stood at 7.4 µM in experiment [1], 29 µM in experiment [2], 38 µM in experiment [3] and 44 µM in experiment [4].
